Measurements as given in US6362212B1, “Oxime derivative and bactericide containing the same as active ingredient” (Shionogi & Company, Ltd., priority 1994, dated 2002).

Legend:
Assay type in all cases: in vivo
[1] = test system: Pyricularia oryzae; conditions: foliage spray on rice seedlings (cv. […]), number of lesions six days after the inoculation
[2] = test system: Sphaerotheca fuliginea; assay: Controlling effect on Sphaerotheca fuliginea by foliage application (pot experiment); conditions: foliage spray on cucumber (cv. TSUKUBASHIROIBO) first leaves, infected area after 10 days in greenhouse at 20° C.
In short: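 First leaves of cucumber seedlings, 2-3 weeks old, were sprayed with compound (DMF solution diluted in water with spreader). They were inoculated 24 h later with a Sphaerotheca fuliginea conidia spray and kept 10 days at 20° C in a greenhouse. Percent control was calculated from infected leaf area.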

[3] = test system: Botrytis cinerea; assay: Controlling effect on Botrytis cinerea by foliage application (pot experiment); conditions: foliage spray on cucumber (cv. TSUKUBASHIROIBO) first leaves, mycelial disks, lesion diameter after 3 days in moist chamber at 20° C.
Protocol: The following Test Examples illustrate the effects of the fungicide of the present invention. (I. Controlling effects on various plant diseases by foliage application (pot experiment)) A test compound was dissolved in a small amount of N,N-dimethylformamide, and the solution was diluted to a given concentration with distilled water containing a spreader. Thus, a liquid sample to be tested was prepared. The liquid sample was sprayed to test plants, and 24 hours thereafter, pathogens were inoculated by the method described below. […] The seeds of cucumber ([…]) were sown in plastic cups (each 9 cm in diameter), followed by cultivation for 2 to 3 weeks. The test compound in the form of a solution or suspension was sprayed to the surface of their first leaves, and mycelial disks (4 mm φ) of Botrytis cinerea cultured on the potato sucrose agar medium were put on the leaf surfaces to inoculate. the cucumber seedlings with the pathogen. The plants were kept in a moist chamber at 20° C. for 3 days. The diameter of the lesions on the leaves was measured and the percent control was calculated.

[4] = test system: Erysiphe graminis f. sp. tritici; assay: Controlling effect on Erysiphe graminis f. sp. tritici by foliage application (pot experiment); conditions: foliage spray on wheat (cv. NORIN No. 61) seedlings, infected area after 10 days in greenhouse at 20° C.
In short: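 Wheat seedlings (cv. NORIN No. 61, 2-3 weeks old) sprayed with compound in DMF diluted in water with spreader, then inoculated with conidia 24 hours later. Kept in greenhouse at 20 °C for 10 days; percent control calculated from infected leaf area.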

[5] = test system: Pseudoperonospora cubensis; assay: Controlling effect on Pseudoperonospora cubensis by foliage application (pot experiment); conditions: foliage spray on cucumber (var. TSUKUBASHIROIBO) first leaves, lesion area after 10 days in moist chamber at 20° C.
In short: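 Cucumber plants grown 2–3 weeks were sprayed on first leaves with compound (DMF solution diluted in water with spreader); 24 h later, Pseudoperonospora cubensis zoosporangia suspension dropped on leaves. Plants held in moist chamber at 20° C for 10 days; lesion area observed and percent control calculated.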

[6] = test system: Puccinia coronata; assay: Controlling effect on Puccinia coronata by foliage application (pot experiment); conditions: foliage spray on oat (cv. PC-38) seedlings, infected area after 1 day moist chamber and 8 days greenhouse at 20° C.
In short: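 Oat seedlings (cv. PC-38, 2–3 weeks old) were sprayed with compound in DMF diluted with spreader-containing water, then inoculated 24 h later with P. coronata spores diluted in talc. Plants were held 1 day in a moist chamber at 20° C, then 8 days in a greenhouse at 20° C; percent control came from infected leaf area.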

| SMILES | Controlling effect on PYricularia orYzae by foliage application at 500 ppm (percent control) [1] [percent control] | Controlling effect on Sphaerotheca fuliginea by foliage application at 500 ppm (percent control) [2] [percent control] | Controlling effect on Botrytis cinerea by foliage application at 500 ppm (percent control) [3] [percent control] | Controlling effect on ErYsiphe graminis f. sp. tritici by foliage application at 500 ppm (percent control) [4] [percent control] | Controlling effect on Pseudoperonospora cubensis by foliage application at 500 ppm (percent control) [5] [percent control] | Controllng effect on Puccinia coronata by foliage application at 500 ppm (percent control) [6] [percent control] | pest or weed control at 500 ppm ([2]; Podosphaera fuliginea, in Cucumis sativus, foliar, 240 h, read-out: Controlling effect on Sphaerotheca fuliginea by foliage application at 500 ppm (percent control)) [%] | pest or weed control at 500 ppm ([4]; Blumeria graminis, foliar, 240 h, read-out: Controlling effect on ErYsiphe graminis f. sp. tritici by foliage application at 500 ppm (percent control)) [%] |
| --- | --- | --- | --- | --- | --- | --- | --- | --- |
| CON=C(c1ccccc1COc1ccc(Cl)c(Cl)c1)c1nccn1C (single isomer, unassigned) [132A] | 70 | 100 | 70 | 70 | 100 | – | – | – |
| CON=C(c1ccccc1COc1ccc(Cl)cc1C)c1nccn1C (single isomer, unassigned) [141A] | 70 | 100 | 90 | 90 | 100 | – | – | – |
| CON=C(c1cc(C)no1)c1ccccc1COc1ccccc1Cl (single isomer, unassigned) [605A] | 90 | 100 | 70 | 90 | 100 | – | – | – |
| CON=C(c1cc(C)no1)c1ccccc1COc1ccc(Cl)cc1 (single isomer, unassigned) [607A] | 90 | 90 | 70 | 90 | 97 | – | – | – |
| CCON=C(c1ccccc1COc1ccccc1)n1ccnc1 [Compound No. 61] | 97 | – | 100 | 97 | – | 97 | – | – |
| OC(c1ccc(Cl)cc1)(c1cncnc1)c1ccccc1Cl (stereo not drawn) [Fenarimol, reference compound] | – | – | 97 | – | – | 97 | 97 | 97 |
| CON=C(c1ccccc1COc1ccccc1Cl)n1cncc1C [compound 205] | 90 | 100 | 70 | – | – | 70 | – | – |
| CON=C(c1nnco1)c1ccccc1COc1cccc(C)c1 [compound 713] | 97 | 100 | 70 | 90 | 100 | – | – | – |
| CON=C(c1nnco1)c1ccccc1COc1ccc(Cl)c(Cl)c1 [compound 732] | 70 | 100 | 70 | 70 | 100 | – | – | – |
